From PubChem BioAssay AID248 (DTP/NCI, 2004)
Several values for one entry are separate records, joined by “and”; a condition that tells them apart may be missing. Equal entries are not always repeated. Inconclusive results and toxic doses are left out. No stated cut-off is given here; in the data, active means T/C of 150% or more; inactive means T/C below 125%.

System: L1210 leukemia ip in BDF1 mice, survival T/C
Assay: NCI In Vivo Anticancer Drug Screen. Data for tumor model L1210 Leukemia (intraperitoneal) in B6D2F1 (BDF1) mice
Details: endpoint: mean survival time, higher = longer survival
Procedure, shortened: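 Antitumor effect is assessed in tumor-bearing animals. Survival in the compound arm is compared with a vehicle-dosed control arm and expressed as their quotient.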

Measured: T/C

CC[N+](C)(CC)CCC[N+]1(C)CC2CC=CCC2C1 (configuration not stated)
inactive: dose: 55.0 mg/kg/injection, schedule: Q01DX Z (ip), vehicle: saline 103 % of control | dose: 83.0 mg/kg/injection, schedule: Q01DX Z (ip), vehicle: saline 97 % of control | dose: 125.0 mg/kg/injection, schedule: Q01DX Z (ip), vehicle: saline 96 % of control

O=S(=O)(O)Nc1ccc(Cl)cc1
inactive: dose: 25.0 mg/kg/injection, schedule: Q04DX002 (ip), vehicle: Klucel (hydroxypropylcellulose) (HPC) 102 % of control | dose: 50.0 mg/kg/injection, schedule: Q04DX002 (ip), vehicle: Klucel (hydroxypropylcellulose) (HPC) 102 % of control | dose: 100.0 mg/kg/injection, schedule: Q04DX002 (ip), vehicle: Klucel (hydroxypropylcellulose) (HPC) 102 % of control

Nc1nc(N)c(CCCCc2ccccc2)c(/C=C/c2ccc([N+](=O)[O-])cc2)n1
inactive: dose: 100.0 mg/kg/injection, schedule: Q01DX001 (ip), vehicle: gum acacia 92 % of control | dose: 200.0 mg/kg/injection, schedule: Q01DX001 (ip), vehicle: gum acacia 94 % of control | dose: 400.0 mg/kg/injection, schedule: Q01DX001 (ip), vehicle: gum acacia 95 % of control

O=CC(NC(=O)N(CCCl)N=O)C(O)C(O)C(O)CO (configuration not stated)
inactive: dose: 10.0 mg/kg/injection, schedule: Q01DX009 (ip), vehicle: other 107 % of control
active: dose: 2.0 mg/kg/injection, schedule: Q01DX009 (ip), vehicle: carboxymethylcellulose (CMC) 169 % of control | dose: 2.0 mg/kg/injection, schedule: Q01DX009 (ip), vehicle: other 163 % of control | dose: 2.0 mg/kg/injection, schedule: Q01DX009 (ip), vehicle: saline 172 % of control | dose: 3.0 mg/kg/injection, schedule: Q01DX009 (ip), vehicle: carboxymethylcellulose (CMC) 186 % of control | dose: 3.0 mg/kg/injection, schedule: Q01DX009 (ip), vehicle: other 180 % of control | dose: 3.0 mg/kg/injection, schedule: Q01DX009 (ip), vehicle: saline 259 % of control | dose: 4.4 mg/kg/injection, schedule: Q01DX009 (ip), vehicle: carboxymethylcellulose (CMC) 204 % of control | dose: 4.4 mg/kg/injection, schedule: Q01DX009 (ip), vehicle: other 290 % of control | dose: 4.4 mg/kg/injection, schedule: Q01DX009 (ip), vehicle: saline 308 % of control | dose: 4.5 mg/kg/injection, schedule: Q01DX009 (ip), vehicle: saline 154 % of control | dose: 6.0 mg/kg/injection, schedule: Q01DX001 (ip), vehicle: carboxymethylcellulose (CMC) 152 % of control | dose: 6.0 mg/kg/injection, schedule: Q01DX001 (ip), vehicle: other 154 % of control | dose: 6.7 mg/kg/injection, schedule: Q01DX009 (ip), vehicle: carboxymethylcellulose (CMC) 318 % of control | dose: 6.7 mg/kg/injection, schedule: Q01DX009 (ip), vehicle: other 151 % of control | dose: 6.7 mg/kg/injection, schedule: Q01DX009 (ip), vehicle: saline 471 % of control | dose: 6.8 mg/kg/injection, schedule: Q01DX009 (ip), vehicle: saline 207 % of control | dose: 9.0 mg/kg/injection, schedule: Q01DX001 (ip), vehicle: carboxymethylcellulose (CMC) 208 % of control and 213 % of control | dose: 9.0 mg/kg/injection, schedule: Q01DX001 (ip), vehicle: other 155 % of control | dose: 9.0 mg/kg/injection, schedule: Q01DX001 (ip), vehicle: saline 336 % of control | dose: 10.0 mg/kg/injection, schedule: Q01DX009 (ip), vehicle: carboxymethylcellulose (CMC) 281 % of control | dose: 10.0 mg/kg/injection, schedule: Q01DX009 (ip), vehicle: saline 152 % of control and 243 % of control | dose: 13.0 mg/kg/injection, schedule: Q01DX001 (ip), vehicle: carboxymethylcellulose (CMC) 273 % of control and 302 % of control | dose: 13.0 mg/kg/injection, schedule: Q01DX001 (ip), vehicle: other 272 % of control | dose: 13.0 mg/kg/injection, schedule: Q01DX001 (ip), vehicle: saline 211 % of control and 424 % of control | dose: 18.0 mg/kg/injection, schedule: Q01DX001 (ip), vehicle: saline 505 % of control | dose: 20.0 mg/kg/injection, schedule: Q01DX001 (ip), vehicle: carboxymethylcellulose (CMC) 455 % of control and 531 % of control | dose: 20.0 mg/kg/injection, schedule: Q01DX001 (ip), vehicle: other 575 % of control | dose: 20.0 mg/kg/injection, schedule: Q01DX001 (ip), vehicle: saline 296 % of control and 486 % of control | dose: 26.0 mg/kg/injection, schedule: Q01DX001 (ip), vehicle: saline 505 % of control | dose: 30.0 mg/kg/injection, schedule: Q01DX001 (ip), vehicle: carboxymethylcellulose (CMC) 282 % of control and 537 % of control | dose: 30.0 mg/kg/injection, schedule: Q01DX001 (ip), vehicle: other 506 % of control | dose: 30.0 mg/kg/injection, schedule: Q01DX001 (ip), vehicle: saline 284 % of control and 617 % of control | dose: 44.0 mg/kg/injection, schedule: Q01DX001 (ip), vehicle: carboxymethylcellulose (CMC) 162 % of control | dose: 45.0 mg/kg/injection, schedule: Q01DX001 (ip), vehicle: carboxymethylcellulose (CMC) 266 % of control | dose: 45.0 mg/kg/injection, schedule: Q01DX001 (ip), vehicle: other 153 % of control

CCCCN(CCCC)S(=O)(=O)CCCC
inactive: dose: 100.0 mg/kg/injection, schedule: Q04DX003 (ip), vehicle: saline 91 % of control | dose: 200.0 mg/kg/injection, schedule: Q04DX003 (ip), vehicle: saline 103 % of control | dose: 400.0 mg/kg/injection, schedule: Q04DX003 (ip), vehicle: saline 94 % of control

C[N+]1=CN(c2ccc(Cl)cc2)Cc2cc(Cl)ccc21
inactive: dose: 100.0 mg/kg/injection, schedule: Q01DX009 (ip), vehicle: Klucel (hydroxypropylcellulose) (HPC) 95 % of control | dose: 100.0 mg/kg/injection, schedule: Q04DX003 (ip), vehicle: Klucel (hydroxypropylcellulose) (HPC) 105 % of control | dose: 200.0 mg/kg/injection, schedule: Q01DX009 (ip), vehicle: Klucel (hydroxypropylcellulose) (HPC) 106 % of control | dose: 200.0 mg/kg/injection, schedule: Q04DX003 (ip), vehicle: Klucel (hydroxypropylcellulose) (HPC) 91 % of control | dose: 400.0 mg/kg/injection, schedule: Q01DX009 (ip), vehicle: Klucel (hydroxypropylcellulose) (HPC) 107 % of control | dose: 400.0 mg/kg/injection, schedule: Q04DX003 (ip), vehicle: Klucel (hydroxypropylcellulose) (HPC) 93 % of control

CC12CCC(=O)C=C1CCC1C2CCC2(C)C(OC(=O)c3ccc(N)cc3)CCC12 (configuration not stated)
inactive: dose: 100.0 mg/kg/injection, schedule: Q04DX002 (ip), vehicle: saline with Tween-80 94 % of control | dose: 200.0 mg/kg/injection, schedule: Q04DX002 (ip), vehicle: saline with Tween-80 91 % of control | dose: 400.0 mg/kg/injection, schedule: Q04DX002 (ip), vehicle: saline with Tween-80 94 % of control

Cc1nc(N)[nH]c(=O)c1CCCOc1ccc([N+](=O)[O-])cc1
inactive: dose: 12.5 mg/kg/injection, schedule: Q04DX002 (ip), vehicle: saline 106 % of control | dose: 25.0 mg/kg/injection, schedule: Q04DX002 (ip), vehicle: saline 102 % of control | dose: 50.0 mg/kg/injection, schedule: Q04DX002 (ip), vehicle: saline 95 % of control

Nc1nc(N)nc(CBr)n1
inactive: dose: 12.5 mg/kg/injection, schedule: Q01DX001 (ip), vehicle: Klucel (hydroxypropylcellulose) (HPC) 103 % of control | dose: 50.0 mg/kg/injection, schedule: Q01DX001 (ip), vehicle: Klucel (hydroxypropylcellulose) (HPC) 115 % of control

CCCCCCCCN(NC(=O)c1ccccc1)S(=O)(=O)c1ccccc1
inactive: dose: 25.0 mg/kg/injection, schedule: Q01DX001 (ip), vehicle: carboxymethylcellulose (CMC) 100 % of control | dose: 25.0 mg/kg/injection, schedule: Q04DX003 (ip), vehicle: carboxymethylcellulose (CMC) 96 % of control | dose: 50.0 mg/kg/injection, schedule: Q01DX001 (ip), vehicle: carboxymethylcellulose (CMC) 100 % of control | dose: 50.0 mg/kg/injection, schedule: Q01DX009 (ip), vehicle: carboxymethylcellulose (CMC) 97 % of control and 89 % of control | dose: 50.0 mg/kg/injection, schedule: Q04DX002 (ip), vehicle: carboxymethylcellulose (CMC) 100 % of control and 107 % of control | dose: 50.0 mg/kg/injection, schedule: Q04DX003 (ip), vehicle: carboxymethylcellulose (CMC) 96 % of control | dose: 100.0 mg/kg/injection, schedule: Q01DX001 (ip), vehicle: carboxymethylcellulose (CMC) 98 % of control | dose: 100.0 mg/kg/injection, schedule: Q01DX009 (ip), vehicle: carboxymethylcellulose (CMC) 100 % of control and 105 % of control | dose: 100.0 mg/kg/injection, schedule: Q04DX002 (ip), vehicle: carboxymethylcellulose (CMC) 100 % of control and 101 % of control | dose: 200.0 mg/kg/injection, schedule: Q04DX002 (ip), vehicle: carboxymethylcellulose (CMC) 102 % of control and 103 % of control
